Entries after “also recorded” stand apart in the source; their conditions may differ. No end group written: not given here.
Legend:
HAM/TSP T cells = assay: Spontaneous ex vivo proliferation of HAM/TSP patient lymphocytes (thymidine incorporation); format: cell-based, human; conditions: 5 days culture without exogenous cytokines; BNZ132-1 1 μM or 3 and 0.3 μM; mABs 5 mg/ml each
Protocol: FIG. 7A, and FIG. 7B present effective inhibition of a combined function of target γc-cytokines by BNZ132-1. […] Human Peripheral T cells were prepared as described in the methodology section. Four hundred thousand cells (in 200 μl culture) were incubated with the cytokines and BNZ132-1 at the indicated concentrations for 24 h, and cellular proliferation was determined by the […] using the WST-1 reagent (Clontech). The Y-axis represents the OD450 values. The p values; 1 nM cytokine combination-No inhibition vs. anti-IL-2; 0.33, No inhibition vs. anti-IL-15; 0.13, No inhibition vs. anti IL-2+IL-15; 0.003. No inhibition vs. BNZ132-1; 0.021. 0.1 nM cytokine combination-No inhibition vs. anti-IL-2; 0.046, No inhibition vs. anti-IL-15; 0.057, No inhibition vs. anti IL-2+IL-15; 0.001, No inhibition vs. anti IL-2+15; 0.001, No inhibition vs.BNZ132-1; 0.001. The assay was performed in triplicate. […] Peripheral blood mononuclear cells were purified from the blood of a HAM-TSP patient and set up for a spontaneous proliferation assay as previously described36. The cellular proliferation was measured by the thymidine incorporation assay. The Y-axis represents the cpm values. Doses are on the X-axis; BNZ132-1, 3 and 0.3 μM. Antibodies against IL-2 or IL-15 (1 and 10 μg ml-1 of each, R & D Systems). […]

human IL-15 = assay: NK92 cell proliferation assay (WST-1), IL-15; format: cell-based; conditions: 24 h
Protocol: Human peripheral blood mononuclear cells were purified by the Ficoll-paque gradient centrifugation (GE-Healthcare) and stimulated by PHA (5 μg ml^−1, Sigma) for 48 h, then expanded with IL-2 (0.5 nM, Peprotech) for 48h, and then depleted of non-T cells by the Pan-T cell negative enrichment Ab cocktails (Miltenyi). The purified T cells were then fasted of IL-2 overnight prior to the proliferation assay by the tetrazolium dye method. Four hundred thousand cells (in 200 μl culture) were incubated with the cytokines and BNZ132-1 at the indicated concentrations for 24 h, and 20 μl WST1 reagent (Clontech) was added to each well. After 12 h incubation, OD450 was measured. The assay was performed in triplicate. […] NK 92 cells were cultured in human IL-2. Cells were washed to withdraw IL-2 for overnight and two hundred thousand cells (in 200 μl volume) were incubated with the indicated concentrations of the cytokine and BNZ132-1 for 24 h before 20 μl WST-1 reagent (Clontech) was added to each well to measure proliferative response. Absorbance at 450 nm was read at 6 h after the addition of the WST-1 dye. The assay was performed in triplicate. The assay was performed in triplicate and the figure represents a typical result out of 5 different HAM-TSP patients.
FIG. 8B, and FIG. 8C show the results of NK92 cell proliferation assay. NK92 cells responded to IL-2 and IL-15. […]

## IKEFLQRFIHIVQSIINTS [BNZ132-1]
HAM/TSP T cells
  inhibition of spontaneous ex vivo proliferation of HAM/TSP T cells: as effective inhibition as combined anti-IL-2 and anti-IL-15 mABs; also recorded: Efficient inhibition
Human IL-15
  inhibition of IL-15-induced proliferation of NK92 cells: dose-dependent manner; also recorded: dose-dependent inhibition

Reference: patent publication US10854312B2, “Selective peptide antagonists” (BIONIZ, LLC, priority 2013, dated 2020)
